Common to all, as to assay: inhibition of tumour cell growth, NCI panel, 48 h
Assay [1] has as its system OVCAR-5.
In assay [2] the test system is SR.
In assay [3] the test system is HT-29.
For assay [4], the system named is HOP-62.
Assay [5] has as its system CAKI-1.
In assay [6] the test system is SW-620.
Assay [7] relates to A498.
Assay [8] deals with SF-539.
The subject of assay [9] is SF-295.
Assay [10] concerns ACHN.
Assay [11] concerns Malme-3M.
Assay [12] relates to Hs-578T.
In assay [13] the test system is U-251.
The subject of assay [14] is SK-OV-3.
Assay [15] deals with HCC 2998.
Assay [16] concerns OVCAR-4.
Assay [17] has as its system OVCAR-3.
Assay [18] relates to MOLT-4.
Assay [19] has as its system MCF7.
The test system of assay [20] is NCI-H522.

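A five-concentration, 48-hour dose response in 96-well plates underlies each endpoint, interpolated linearly between surrounding concentrations. GI50 = concentration required for 50% inhibition of growth.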 The source made the active and inactive calls. No stated cut-off is given here; in the data, active = GI50 up to about 1.1 µM and inactive = higher.

Regarding `Cc1cc(O)c2c(c1)C(=O)C=C(Br)C2=O`, the GI50 in assay [1] is 16.1 µM (inactive); in assay [2] it was 1.3 µM (inactive); in assay [3] it was 21.1 µM (inactive); in assay [4], > 63.5 µM (inactive); in assay [5], 12.5 µM (inactive); in [6], 3.42 µM (inactive). Moreover, the GI50 in assay [7] was 18.9 µM (inactive); in [8] it was 16 µM (inactive); in assay [9] it was 36 µM (inactive); in assay [10] it was 15.6 µM (inactive); in assay [11] it was 7.69 µM (inactive); in assay [12] it was 13 µM (inactive). Moreover, the GI50 in assay [13] was 29.7 µM (inactive); in assay [14], > 100 µM (inactive); in assay [15], > 43.7 µM (inactive); in [16], 11.8 µM (inactive); in assay [17], 16.7 µM (inactive); in [18] it was 0.52 µM (active). In addition, the values for the GI50 in [19] and in assay [20] were 7.82 µM (inactive) and 2.94 µM (inactive), respectively.

Consider `CCOC(=O)/C=C/CCO[Si](C)(C)C(C)(C)C`, for which the GI50 in [1], in assay [2], in assay [3], in assay [4], in assay [5] and in assay [6] was > 100 µM (inactive) each time. The GI50 in [7], in [8], in assay [9], in assay [10], in [11] and in assay [12] was > 100 µM (inactive) throughout. Besides, the GI50 in [13], in assay [14], in assay [15], in assay [16], in assay [17] and in assay [18] was > 100 µM (inactive) throughout. For the same compound, the GI50 in assay [19] is 97.5 µM (inactive); in [20], > 100 µM (inactive).

Consider `Cc1ccc(C2=CC(=O)/C(=C\C(=O)c3ccc(Cl)cc3)O2)cc1`, for which the GI50 in assay [1] was 21.1 µM (inactive); in [2], 1.42 µM (inactive); in [3], 4.14 µM (inactive); in [4], 97.9 µM (inactive); in [5], 2.3 µM (inactive); in assay [6], 2.39 µM (inactive). Moreover, the GI50 in assay [7] is 27.2 µM (inactive); in [8], 21.2 µM (inactive); in [10], 5.09 µM (inactive); in assay [11], 17.2 µM (inactive); in [12] it was 23.9 µM (inactive); in assay [13], 17.7 µM (inactive). Moreover, the GI50 was 6.43 µM (inactive) in assay [14]; 27.4 µM (inactive) in assay [15]; 15.9 µM (inactive) in [16]; 4.7 µM (inactive) in [17]; 3.94 µM (inactive) in assay [18]; 10.6 µM (inactive) in [19]. Also, the GI50 in assay [20] was 1.97 µM (inactive).

Consider `CCCCc1ccc(Nc2nc3ncnc-3c[nH]2)cc1`, for which the GI50 was 37.2 µM (inactive) in assay [1]; > 10 µM (inactive) in [2]; 21 µM (inactive) in assay [3]; 17.7 µM (inactive) in assay [4]; 19.4 µM (inactive) in assay [5]; 20.4 µM (inactive) in [6]. Also, the GI50 in [7] was 26.1 µM (inactive); in assay [8], 26.7 µM (inactive); in [9] it was 18.2 µM (inactive); in assay [10], 15.2 µM (inactive); in assay [11] it was 19.6 µM (inactive); in assay [12], 5.52 µM (inactive). The GI50 is 22.1 µM (inactive) in [13]; 18.4 µM (inactive) in assay [14]; 16.8 µM (inactive) in assay [15]; 25.3 µM (inactive) in assay [16]; 14.2 µM (inactive) in assay [17]; 14.3 µM (inactive) in assay [18]. Besides, the figures for the GI50 in [19] and in assay [20] were 29.6 µM (inactive) and 21.6 µM (inactive), respectively.

Values taken from ChEMBL document CHEMBL1201862, “PubChem BioAssay data set” (2004).
